Source: US10723741B1, “DNA polymerase IIIC inhibitors and use thereof” (Acurx Pharmaceuticals, LLC, priority 2018, dated 2020)
Converted amounts (≈) assume the structure as drawn. Like-named read-outs stand apart in the source and are kept apart here.

Assays:
Assay type in all cases: cell-based
[1] = test system: Enterococcus faecium ATCC 700221 (VRE); test: Broth microdilution MIC, E. faecium ATCC 700221 (VRE); settings: Enterococcus faecium, broth microdilution, 37° C., 20 hours
Method in brief: (§1)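 Broth microdilution in strain-specific test medium with ~5.0×10^5 cfu/ml inoculum, 1% DMSO and two-fold compound dilutions from 64 to 0.0625 μg/ml. Plates were held 20 hours at 37° C in ambient air. S. pneumoniae colonies were grown beforehand on blood agar in 5% CO2.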

[2] = test system: Streptococcus pneumoniae ATCC 49619; test: Broth microdilution MIC, S. pneumoniae ATCC 49619; settings: ATCC49619, broth microdilution, 37° C., 20 hours, read-out: MIC S. pneumoniae ATCC 49619
Method in brief: as §1

[3] = test system: Bacillus subtilis ATCC 6633; test: Broth microdilution MIC, B. subtilis ATCC 6633; settings: ATCC6633, broth microdilution, 37° C., 20 hours, read-out: MIC B. subtilis ATCC 6633
Method in brief: as §1

[4] = read-out: MIC E. faecium ATCC 700221 (VRE)
[5] = MHIIB, read-out: MIC against E. faecium ATCC 700221 (VRE)

Row | SMILES | MIC [1, 4] | MIC [1, 5] | MIC [2] | MIC [3]
1 | Cn1ncc2nc(NCc3ccc(Cl)c(Cl)c3)[nH]c(=O)c21 [Compound 2, 5-((3,4-Dichlorobenzyl)amino)-1-methyl-1H-pyrazolo[4,3-d]pyrimidin-7(6H)-one] | 1 µg/mL (≈ 3.08 µM) | ≤ 1 µg/mL | 4 µg/mL (≈ 12.3 µM) | 1 µg/mL (≈ 3.08 µM)
2 | Cc1nn(C)c2c(=O)[nH]c(NCc3ccc(Cl)c(Cl)c3)nc12 [Compound 44, 5-((3,4-dichlorobenzyl)amino)-1,3-dimethyl-1H-pyrazolo[4,3-d]pyrimidin-7(6H)-one] | 4 µg/mL (≈ 11.8 µM) | ≤ 1 µg/mL | 4 µg/mL (≈ 11.8 µM) | 2 µg/mL (≈ 5.91 µM)
3 | C=CCn1ncc2nc(NCc3ccc(Cl)c(Cl)c3)[nH]c(=O)c21 [Compound 56, 1-allyl-5-((3,4-dichlorobenzyl)amino)-1H-pyrazolo[4,3-d]pyrimidin-7(6H)-one] | 0.5 µg/mL (≈ 1.43 µM) | ≤ 1 µg/mL | 2 µg/mL (≈ 5.71 µM) | 0.25 µg/mL (≈ 0.714 µM)
4 | O=c1[nH]c(NCc2ccc(Cl)c(Cl)c2)nc2cn[nH]c12 [Compound 77, 5-((3,4-dichlorobenzyl)amino)-1H-pyrazolo[4,3-d]pyrimidin-7(6H)-one] | 4 µg/mL (≈ 12.9 µM) |  | 4 µg/mL (≈ 12.9 µM) | 4 µg/mL (≈ 12.9 µM)
5 | COCCn1ncc2nc(NCc3ccc(Cl)c(Cl)c3)[nH]c(=O)c21 [Compound 126, 5-((3,4-dichlorobenzyl)amino)-1-(2-methoxyethyl)-1H-pyrazolo[4,3-d]pyrimidin-7(6H)-one] | 2 µg/mL (≈ 5.43 µM) |  | 2 µg/mL (≈ 5.43 µM) | 1 µg/mL (≈ 2.72 µM)
6 | Cl.O=c1[nH]c(NCc2ccc(Cl)c(Cl)c2)nc2cnn(CC3CNCCO3)c12 (stereo not shown) [Compound 149, 5-((3,4-dichlorobenzyl)amino)-1-(morpholin-2-ylmethyl)-1H-pyrazolo[4,3-d]pyrimidin-7(6H)-one hydrochloride] | 8 µg/mL |  | 4 µg/mL | 2 µg/mL
7 | Cl.Cl.O=c1[nH]c(NCc2ccc(Cl)c(Cl)c2)nc2cnn(CCOCCN3CCNCC3)c12 [Compound 167, 5-[(3,4-dichlorophenyl)methylamino]-1-[2-(2-piperazin-1-ylethoxy)ethyl]-6H-pyrazolo[4,3-d]pyrimidin-7-one] | 64 µg/mL |  | 16 µg/mL | 16 µg/mL
8 | CN(C)CCOCCn1ncc2nc(NCc3ccc(Cl)c(Cl)c3)[nH]c(=O)c21.Cl [Compound 211, 5-((3,4-dichlorobenzyl)amino)-1-(2-(2-(dimethylamino)ethoxy)ethyl)-1H-pyrazolo[4,3-d]pyrimidin-7(6H)-one hydrochloride] | 8 µg/mL |  | 4 µg/mL | 2 µg/mL
9 | O=c1[nH]c(NCc2ccc(Cl)c(Cl)c2)nc2cnn(-c3ccccc3)c12 [Compound 212, 5-[(3,4-dichlorophenyl)methylamino]-1-phenyl-6H-pyrazolo[4,3-d]pyrimidin-7-one] | 1 µg/mL (≈ 2.59 µM) | ≤ 1 µg/mL | 8 µg/mL (≈ 20.7 µM) | 1 µg/mL (≈ 2.59 µM)
10 | O=c1[nH]c(NCc2ccc(Cl)c(Cl)c2)nc2cnn(C3CC3)c12 [Compound 213, 1-Cyclopropyl-5-((3,4-dichlorobenzyl)amino)-1H-pyrazolo[4,3-d]pyrimidin-7(6H)-one] | 1 µg/mL (≈ 2.86 µM) | ≤ 1 µg/mL | 4 µg/mL (≈ 11.4 µM) | 0.5 µg/mL (≈ 1.43 µM)
11 | O=c1[nH]c(NCc2ccc(Cl)c(Cl)c2)nc2cnn(C3CCCC3)c12 [Compound 214, 1-cyclopentyl-5-((3,4-dichlorobenzyl)amino)-1H-pyrazolo[4,3-d]pyrimidin-7(6H)-one] | 1 µg/mL (≈ 2.64 µM) | ≤ 1 µg/mL | 8 µg/mL (≈ 21.1 µM) | 0.5 µg/mL (≈ 1.32 µM)
12 | COC(=O)CCCCn1ncc2nc(NCc3ccc(Cl)c(Cl)c3)[nH]c(=O)c21 [Compound 218, methyl 5-[5-[(3,4-dichlorophenyl)methylamino]-7-oxo-6H-pyrazolo[4,3-d]pyrimidin-1-yl]pentanoate] | 1 µg/mL (≈ 2.36 µM) | ≤ 1 µg/mL | 2 µg/mL (≈ 4.71 µM) | 0.5 µg/mL (≈ 1.18 µM)
13 | Cl.O=c1[nH]c(NCc2ccc(Cl)c(Cl)c2)nc2cnn(C3CCN(C4CCOCC4)CC3)c12 [Compound 242, 5-((3,4-dichlorobenzyl)amino)-1-(1-(tetrahydro-2H-pyran-4-yl)piperidin-4-yl)-1H-pyrazolo[4,3-d]pyrimidin-7(6H)-one hydrochloride] | 2 µg/mL |  | 2 µg/mL | 2 µg/mL
14 | O=C(O)CCC(=O)N1CCC(n2ncc3nc(NCc4ccc(Cl)c(Cl)c4)[nH]c(=O)c32)CC1 [Compound 273, 4-(4-(5-((3,4-dichlorobenzyl)amino)-7-oxo-6,7-dihydro-1H-pyrazolo[4,3-d]pyrimidin-1-yl)piperidin-1-yl)-4-oxobutanoic Acid] | 32 µg/mL (≈ 64.9 µM) |  | 32 µg/mL (≈ 64.9 µM) | > 64 µg/mL
15 | O=C([C@@H](O)[C@H](O)CO)N1CCC(n2ncc3nc(NCc4ccc(Cl)c(Cl)c4)[nH]c(=O)c32)CC1 [Compound 276, 5-((3,4-dichlorobenzyl)amino)-1-(1-((2S,3R)-2,3,4-trihydroxybutanoyl)piperidin-4-yl)-1H-pyrazolo[4,3-d]pyrimidin-7(6H)-one] | 32 µg/mL (≈ 62.6 µM) |  | 8 µg/mL (≈ 15.6 µM) | 16 µg/mL (≈ 31.3 µM)
